Assays:
293T cells [1] = assay: Western blot of 293T cells treated with inhibitors; format: cell-based, human
293T cells [2] = conditions: 30 min; cited from earlier work

## COc1ccc(-c2ccc3c(N4CCOC[C@@H]4C)nc(N4CCOC[C@@H]4C)nc3n2)cc1CO [AZD8055]
293T cells [1]; 3 and 16 h of treatment
  phosphorylation of AKT (pAKT): decrease in pAKT at T308 and S473
  phosphorylation of S6 (pS6 levels): significant decrease in pS6 levels at both the S235 and S240 sites

## CCc1cncnc1N1CCN(Cc2nc3ccc(C(F)(F)F)cc3[nH]2)CC1 [PF-4708671]
293T cells [1]; 3 and 16 h of treatment
  phosphorylation of AKT (pAKT): no effect on the phosphorylation of AKT
293T cells [1]; 3 h time point
  phosphorylation of S6: modest decrease in phosphorylation of S6
293T cells [1]; 16 h time point
  phosphorylation of S6: returned to near basal levels
293T cells [2]
  S6 phosphorylation: significant reduction in S6 phosphorylation
